From ChEMBL document CHEMBL4411288, “Design, synthesis and biological evaluation of novel 7-amino-[1,2,4]triazolo[4,3-f]pteridinone, and 7-aminotetrazolo[1,5-f]pteridinone derivative as potent antitumor agents” (Eur J Med Chem, 2019)
The source made the active and inactive calls. The rule behind the calls is not given here.

Tests used:
[1] = test system: A549; assay: Cytotoxicity against human A549 cells assessed as reduction in cell viability after 72 hrs by MTT assay; assay type: functional, cell-based; details: A549, 72 h
[2] = test system: HCT-116; assay: Cytotoxicity against human HCT116 cells assessed as reduction in cell viability after 72 hrs by MTT assay; assay type: functional, cell-based; details: HCT-116, 72 h
[3] = test system: PC-3; assay: Cytotoxicity against human PC3 cells assessed as reduction in cell viability after 72 hrs by MTT assay; assay type: functional, cell-based; details: PC-3, 72 h
[4] = biological target: Serine/threonine-protein kinase PLK1 (Homo sapiens) (UniProt P53350); assay: Inhibition of recombinant human N-terminal His6-tagged PLK1 expressed in baculovirus infected Sf21 insect cells at 1 uM using FAM-labelled peptide as substrate preincubated for 10 mins followed by substrate addition measured after 1 hr relative to control
Chain of Serine/threonine-protein kinase PLK1 (Homo sapiens) (P53350 whole entry): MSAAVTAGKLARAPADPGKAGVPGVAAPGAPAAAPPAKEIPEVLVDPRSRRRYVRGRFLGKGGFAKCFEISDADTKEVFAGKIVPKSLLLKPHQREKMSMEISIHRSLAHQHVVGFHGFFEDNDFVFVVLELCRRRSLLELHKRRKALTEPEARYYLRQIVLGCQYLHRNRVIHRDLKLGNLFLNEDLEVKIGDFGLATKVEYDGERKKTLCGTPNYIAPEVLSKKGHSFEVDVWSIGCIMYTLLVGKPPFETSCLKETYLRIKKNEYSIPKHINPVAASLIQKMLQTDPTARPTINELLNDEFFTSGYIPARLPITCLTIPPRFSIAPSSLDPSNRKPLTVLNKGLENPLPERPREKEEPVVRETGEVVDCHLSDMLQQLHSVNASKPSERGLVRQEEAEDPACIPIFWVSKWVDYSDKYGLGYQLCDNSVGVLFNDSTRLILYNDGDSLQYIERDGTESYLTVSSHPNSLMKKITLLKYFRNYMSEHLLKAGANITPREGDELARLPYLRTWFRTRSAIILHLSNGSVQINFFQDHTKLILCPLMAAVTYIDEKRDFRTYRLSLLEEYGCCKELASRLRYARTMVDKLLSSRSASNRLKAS

[5] = test system: MCF7; assay: cells; details: Homo sapiens, MCF7, 72 h
Description: Cytotoxicity against human MCF7 cells assessed as reduction in cell viability after 72 hrs by MTT assay

[6] = test system: MDA-MB-231; assay: cells; details: Homo sapiens, MDA-MB-231, 72 h
Description: Cytotoxicity against human MDA-MB-231 cells assessed as reduction in cell viability after 72 hrs by MTT assay

[7] = test system: A549; assay: Induction of apoptosis in human A549 cells assessed as late apoptotic cells at 1 uM after 24 hrs by acridine orange/ethidium bromide staining-based fluorescence microscopic method; assay type: functional, cell-based
[8] = test system: A549; assay: Induction of apoptosis in human A549 cells assessed as late apoptotic cells at 5 uM after 24 hrs by acridine orange/ethidium bromide staining-based fluorescence microscopic method; assay type: functional, cell-based

| inhibition [4] | IC50 [5] | IC50 [6] | Compound | IC50 [1] | IC50 [2] | IC50 [3] | Activity [7] | Activity [8] |
| --- | --- | --- | --- | --- | --- | --- | --- | --- |
| 44.7% | 0.51 µM | 2.25 µM | CCN1CCN(c2ccc(Nc3ncc4c(n3)n(C3CCCC3)c(=O)c3nnc(C)n34)cc2)CC1 | 0.68 µM | 9.61 µM | 5 µM |  |  |
|  | > 50 µM | > 50 µM | Cc1nnc2c(=O)n(C3CCCC3)c3nc(Nc4ccc(NC5CCCC5)cc4)ncc3n12 | 9.29 µM | > 50 µM | > 50 µM |  |  |
|  | 1.91 µM | > 50 µM | O=c1c2nncn2c2cnc(Nc3ccc(N4CCN(CCO)CC4)cc3)nc2n1C1CCCC1 | 9.8 µM | 9.71 µM | 19.1 µM |  |  |
|  | 2.31 µM | > 50 µM | O=c1c2nnnn2c2cnc(Nc3ccc(N4CCN(CCO)CC4)cc3)nc2n1C1CCCC1 | 3.85 µM | > 50 µM | > 50 µM |  |  |
|  | > 50 µM | 37.4 µM | O=c1c2nnnn2c2cnc(Nc3ccc(N4CCSCC4)cc3)nc2n1C1CCCC1 | > 50 µM | > 50 µM | > 50 µM |  |  |
| 72.1% | 0.41 µM | 4.8 µM | CC1CN(c2ccc(Nc3ncc4c(n3)n(C3CCCC3)c(=O)c3nncn34)cc2)CC(C)N1 (configuration not stated) | 0.89 µM | 4.4 µM | 3.26 µM |  |  |
| 44.2% | > 50 µM | > 50 µM | CN1CCN(c2ccc(Nc3ncc4c(n3)n(C3CCCC3)c(=O)c3nncn34)cc2)CC1 | 6.96 µM | 8 µM | 26.5 µM |  |  |
|  | > 50 µM | > 50 µM | O=c1c2nnnn2c2cnc(Nc3ccc(N4CCN(C5CCCC5)CC4)cc3)nc2n1C1CCCC1 | > 50 µM | 2.12 µM | > 50 µM |  |  |
|  | > 50 µM | > 50 µM | Cc1nnc2c(=O)n(C3CCCC3)c3nc(Nc4ccc(N5CCC(C)CC5)cc4)ncc3n12 | > 50 µM | 11.2 µM | > 50 µM |  |  |
|  | > 50 µM | 6.26 µM | Cc1nnc2c(=O)n(C3CCCC3)c3nc(Nc4ccc(N5CCCCC5)cc4)ncc3n12 | 5.24 µM | 19.1 µM | > 50 µM |  |  |
|  | > 50 µM | > 50 µM | CCN1CCN(c2ccc(Nc3ncc4c(n3)n(C3CCCC3)c(=O)c3nnnn34)cc2)CC1 | 3.57 µM | > 50 µM | 16.1 µM |  |  |
|  | > 50 µM | > 50 µM | O=c1c2nnnn2c2cnc(Nc3ccc(N4CCCCC4)cc3)nc2n1C1CCCC1 | 1.16 µM | > 50 µM | > 50 µM |  |  |
|  | > 50 µM | 6.4 µM | O=c1c2nncn2c2cnc(Nc3ccc(N4CCSCC4)cc3)nc2n1C1CCCC1 | 2.12 µM | 12 µM | > 50 µM |  |  |
|  | > 50 µM | > 50 µM | O=c1c2nncn2c2cnc(Nc3ccc(N4CCCC4)cc3)nc2n1C1CCCC1 | 5.63 µM | 49.3 µM | 11.3 µM |  |  |
|  | > 50 µM | > 50 µM | CC1CCN(c2ccc(Nc3ncc4c(n3)n(C3CCCC3)c(=O)c3nnnn34)cc2)CC1 | 4.92 µM | > 50 µM | > 50 µM |  |  |
|  | > 50 µM | > 50 µM | O=c1c2nnnn2c2cnc(Nc3ccc(N4CCCC4)cc3)nc2n1C1CCCC1 | 7.86 µM | > 50 µM | > 50 µM |  |  |
|  | > 50 µM | > 50 µM | CN1CCN(C2CCN(c3ccc(Nc4ncc5c(n4)n(C4CCCC4)c(=O)c4nncn45)cc3)CC2)CC1 | 2.95 µM | 9.3 µM | 13.4 µM |  |  |
| 31.6% | > 50 µM | 9.12 µM | Cc1nnc2c(=O)n(C3CCCC3)c3nc(Nc4ccc(N5CCN(C6CCCC6)CC5)cc4)ncc3n12 | 11.4 µM | > 50 µM | > 50 µM |  |  |
|  | > 50 µM | 53.5 µM | O=c1c2nnnn2c2cnc(Nc3ccc(N4CCC(O)CC4)cc3)nc2n1C1CCCC1 | > 50 µM | 36.3 µM | > 50 µM |  |  |
|  | > 50 µM | > 50 µM | Cc1nnc2c(=O)n(C3CCCC3)c3nc(Nc4ccc(N5CCC(O)CC5)cc4)ncc3n12 | 21.7 µM | 18.1 µM | > 50 µM |  |  |
|  | > 50 µM | 8.95 µM | O=c1c2nnnn2c2cnc(Nc3ccc(NC4CCCC4)cc3)nc2n1C1CCCC1 | > 50 µM | 43.2 µM | > 50 µM |  |  |
| 77.9% | 0.5 µM | 1.6 µM | CC1CN(c2ccc(Nc3ncc4c(n3)n(C3CCCC3)c(=O)c3nnnn34)cc2)CC(C)N1 (configuration not stated) | 0.44 µM | 0.6 µM | 1 µM | Active | Active |

| inhibition [4] | IC50 [5] | IC50 [6] | Compound | IC50 [1] | IC50 [2] | IC50 [3] | Activity [7] | Activity [8] |
| --- | --- | --- | --- | --- | --- | --- | --- | --- |
|  | 2.58 µM | > 50 µM | CN(C)c1ccc(Nc2ncc3c(n2)n(C2CCCC2)c(=O)c2nnnn23)cc1 | 10.1 µM | > 50 µM | > 50 µM |  |  |
|  | > 50 µM | > 50 µM | CCN1CCN(c2ccc(N(C(C)=O)c3ncc4c(n3)n(C3CCCC3)c(=O)c3nnc(C)n34)cc2)CC1 | 20.2 µM | 40.3 µM | > 50 µM |  |  |
|  | 4.09 µM | 3.5 µM | CC(=O)c1c(C)c2cnc(Nc3ccc(N4CCNCC4)cn3)nc2n(C2CCCC2)c1=O [PALBOCICLIB] | 1.32 µM | 8.9 µM | 2.2 µM |  |  |
| 26.1% | 1.05 µM | 0.61 µM | Cc1nnc2c(=O)n(C3CCCC3)c3nc(Nc4ccc(N5CCN(C)CC5)cc4)ncc3n12 | 1.92 µM | 72.8 µM | 7.61 µM |  |  |
|  | > 50 µM | 8.1 µM | O=c1c2nncn2c2cnc(Nc3ccc(N4CCC(O)CC4)cc3)nc2n1C1CCCC1 | 41.7 µM | 36.1 µM | > 50 µM |  |  |
|  | 3.21 µM | 5.85 µM | Cc1nnc2c(=O)n(C3CCCC3)c3nc(Nc4ccc(N5CCC(N6CCN(C)CC6)CC5)cc4)ncc3n12 | 2.38 µM | 12.1 µM | > 50 µM |  |  |
| 27.4% | 0.98 µM | > 50 µM | CCN1CCN(c2ccc(Nc3ncc4c(n3)n(C3CCCC3)c(=O)c3nncn34)cc2)CC1 | 1.07 µM | 7.5 µM | 3.48 µM |  |  |
|  | > 50 µM | 5.81 µM | CN1CCN(C2CCN(c3ccc(Nc4ncc5c(n4)n(C4CCCC4)c(=O)c4nnnn45)cc3)CC2)CC1 | 1.28 µM | 7.62 µM | > 50 µM |  |  |
| 19.3% | > 50 µM | 15.8 µM | CN1CCN(c2ccc(Nc3ncc4c(n3)n(C3CCCC3)c(=O)c3nnnn34)cc2)CC1 | 1.25 µM | 19.1 µM | 3.8 µM |  |  |
|  | > 50 µM | 4.9 µM | CC1CCN(c2ccc(Nc3ncc4c(n3)n(C3CCCC3)c(=O)c3nncn34)cc2)CC1 | 3.31 µM | 12 µM | > 50 µM |  |  |
|  | 7.28 µM | > 50 µM | CN(C)c1ccc(Nc2ncc3c(n2)n(C2CCCC2)c(=O)c2nncn23)cc1 | 3.89 µM | 19.1 µM | > 50 µM |  |  |
| 97.7% | 0.09 µM | 0.11 µM | CC[C@@H]1C(=O)N(C)c2cnc(Nc3ccc(C(=O)N[C@H]4CC[C@H](N5CCN(CC6CC6)CC5)CC4)cc3OC)nc2N1C(C)C [VOLASERTIB] | 0.08 µM | 0.11 µM | 0.09 µM |  |  |
|  | > 50 µM | > 50 µM | Cc1nnc2c(=O)n(C3CCCC3)c3nc(Nc4ccc(N5CCSCC5)cc4)ncc3n12 | 7.19 µM | 5.82 µM | > 50 µM |  |  |
|  | > 50 µM | 3.96 µM | O=c1c2nncn2c2cnc(Nc3ccc(N4CCN(C5CCCC5)CC4)cc3)nc2n1C1CCCC1 | > 50 µM | 22.3 µM | > 50 µM |  |  |
|  | > 50 µM | > 50 µM | O=c1c2nncn2c2cnc(Nc3ccc(NC4CCCC4)cc3)nc2n1C1CCCC1 | > 50 µM | 21.2 µM | > 50 µM |  |  |
|  | > 50 µM | > 50 µM | Cc1nnc2c(=O)n(C3CCCC3)c3nc(Nc4ccc(N(C)C)cc4)ncc3n12 | 8.86 µM | 29.1 µM | > 50 µM |  |  |
|  | > 50 µM | 48.5 µM | O=c1c2nnnn2c2cnc(Nc3ccc(N4CCOCC4)cc3)nc2n1C1CCCC1 | 4.81 µM | 43.2 µM | > 50 µM |  |  |
|  | > 50 µM | > 50 µM | Cc1nnc2c(=O)n(C3CCCC3)c3nc(Nc4ccc(N5CCOCC5)cc4)ncc3n12 | 4.29 µM | 8.91 µM | > 50 µM |  |  |
|  | > 50 µM | 3.5 µM | O=c1c2nncn2c2cnc(Nc3ccc(N4CCOCC4)cc3)nc2n1C1CCCC1 | 38.9 µM | 8.91 µM | > 50 µM |  |  |
|  | > 50 µM | 3.85 µM | O=c1c2nncn2c2cnc(Nc3ccc(N4CCCCC4)cc3)nc2n1C1CCCC1 | 3.11 µM | 20.1 µM | > 50 µM |  |  |
|  | > 50 µM | > 50 µM | Cc1nnc2c(=O)n(C3CCCC3)c3nc(Nc4ccc(N5CCCC5)cc4)ncc3n12 | > 50 µM | > 50 µM | > 50 µM |  |  |
| 28.2% | 0.75 µM | 3.35 µM | Cc1nnc2c(=O)n(C3CCCC3)c3nc(Nc4ccc(N5CCN(CCO)CC5)cc4)ncc3n12 | 5.46 µM | 7.61 µM | 8.44 µM |  |  |
